Legend:
[1] = Tolerability in CD1 mice: body weight and organ weights (Example 37); conditions: 50 mg/kg s.c. twice per week for 6 weeks; for body weight: increase in grams over the PBS control weight taken before the start of treatment; for Kidney weight / Liver weight / Spleen weight: percentage of the body weight
Description: Body weight was measured at the onset of the study and subsequently twice per week. The body weights of the mice are presented in Table 80 and are expressed increase in grams over the PBS control weight taken before the start of treatment. Liver, spleen, and kidney weights were measured at the end of the study, and are also presented in Table 80 as percentage of the body weight.

[2] = Tolerability in CD1 mice: kidney function, BUN, creatinine (Example 33); conditions: plasma, 50 mg/kg s.c. twice a week
Description: (§1) A control group of five mice was injected subcutaneously with PBS for 2 weeks. All experimental groups (i.e. ASO treated mice at 2, 4, 6 weeks) were compared to the control group (i.e. PBS, 2 weeks).
To evaluate the effect of ISIS oligonucleotides on kidney function, plasma concentrations of blood urea nitrogen (BUN) and creatinine were measured using an automated clinical chemistry analyzer (Hitachi Olympus AU400e, Melville, N.Y.).

[3] = Tolerability in CD1 mice: liver function, ALT, AST, bilirubin, albumin (Example 33); conditions: plasma, 50 mg/kg s.c. twice a week
Description: as §1
To evaluate the effect of ISIS oligonucleotides on hepatic function, plasma concentrations of transaminases were measured using an automated clinical chemistry analyzer (Hitachi Olympus AU400e, Melville, N.Y.). […] Plasma levels of bilirubin and albumin were also measured using the same clinical chemistry analyzer and expressed in mg/dL.

Substance | body weight [1] | Kidney weight [1] | Liver weight [1] | Spleen weight [1] | BUN ([2]; 2 weeks) | Creatinine ([2]; 2 weeks) | BUN ([2]; 4 weeks) | Creatinine ([2]; 4 weeks) | BUN ([2]; 6 weeks) | Creatinine ([2]; 6 weeks) | ALT ([3]; 2 weeks) | AST ([3]; 2 weeks) | Albumin ([3]; 2 weeks) | Bilirubin ([3]; 2 weeks) | ALT ([3]; 4 weeks) | AST ([3]; 4 weeks) | Albumin ([3]; 4 weeks) | Bilirubin ([3]; 4 weeks) | ALT ([3]; 6 weeks) | AST ([3]; 6 weeks) | also measured
ISIS 416850: MOE gapmer, nucleobases 1275 to 1318 of SEQ ID NO: 1 (Table 8) (antisense TGCACAGTTTCTGGCAGGCC; MOE gapmer, wing and gap sizes not given here) | 12 g | 1.6% | 6% | 0.4% | 25 mg/dL | 0.13 mg/dL | 30 mg/dL | 0.22 mg/dL | 23 mg/dL | 0.19 mg/dL | 67 IU/L | 72 IU/L | 3.6 | 0.46 mg/dL | 58 IU/L | 88 IU/L | 3.5 | 0.23 mg/dL | 102 IU/L | 97 IU/L | Albumin ([3]; 6 weeks): 3.1; Bilirubin ([3]; 6 weeks): 0.22 mg/dL
ISIS 416864: MOE gapmer, nucleobases 1275 to 1318 of SEQ ID NO: 1 (Table 8) (antisense GGCAGCGGACGGCATTGGTG; MOE gapmer, wing and gap sizes not given here) | 12 g | 1.6% | 5% | 0.3% | 22 mg/dL | 0.11 mg/dL | 31 mg/dL | 0.22 mg/dL | 28 mg/dL | 0.16 mg/dL | 44 IU/L | 58 IU/L | 3.5 | 0.40 mg/dL | 33 IU/L | 46 IU/L | 3.6 | 0.26 mg/dL | 92 IU/L | 101 IU/L | Albumin ([3]; 6 weeks): 3.5; Bilirubin ([3]; 6 weeks): 0.22 mg/dL
ISIS 416858: MOE gapmer, nucleobases 1275 to 1318 of SEQ ID NO: 1 (Table 8) (antisense ACGGCATTGGTGCACAGTTT; MOE gapmer, wing and gap sizes not given here) | 12 g | 1.6% | 7% | 0.6% | 21 mg/dL | 0.13 mg/dL | 29 mg/dL | 0.23 mg/dL | 19 mg/dL | 0.10 mg/dL | 190 IU/L | 236 IU/L | 3.4 | 0.57 mg/dL | 57 IU/L | 108 IU/L | 3.5 | 0.24 mg/dL | 216 IU/L | 178 IU/L | Albumin ([3]; 6 weeks): 2.8; Bilirubin ([3]; 6 weeks): 0.16 mg/dL

Reference: patent US20230263822A1, “MODULATION OF FACTOR 11 EXPRESSION” (Ionis Pharmaceuticals, Inc., priority 2008, published 2023)
